According to patent publication EP4610262A1, “MACROCYCLIC COMPOUND AS CDK9 INHIBITOR AND USE THEREOF” (Artivila Biopharma, priority 2022, dated 2024):
pIC50: −log10 of the molar value. Where two headings read alike, the source gives them in different places.

Legend:
MV-4-11 = assay: CDK9 cell activity assay, cell growth inhibition (CellTiter-Glo, 72 hours); format: cell-based; settings: Homo sapiens, MV4-11
Description: (§1) In the CDK9 cell activity assay, the cell line MV-4-11 was cultured in IMDM culture medium containing 10% fetal bovine serum (containing 100 U/mL penicillin and 0.1 g/L streptomycin); the cell line HCC1187 was cultured in RPMI-1640 culture medium containing 10% fetal bovine serum (containing 100 U/mL penicillin and 0.1 g/L streptomycin); the cell line Mia Paca-2 was cultured in DMEM containing 10% fetal bovine serum and 2.5% horse serum (containing 100 U/mL penicillin and 0.1 g/L streptomycin); and the cell line A375 was cultured in RPMI-1640 culture medium containing 10% fetal bovine serum (containing 100 U/mL penicillin and 0.1 g/L streptomycin). All cells were cultured in an incubator with saturated humidity at 37°C with 5% CO2.
(§2) When MV-4-11 cells, HCC1187 cells, Mia Paca-2 cells, and A375 cells grew to 80%-90% confluence, they were digested with trypsin, resuspended, counted, and diluted to a certain cell density with complete medium. 100 µL of the cells was plated into each well of a 96-well plate, and the complete medium was used as a background control. The cells were cultured overnight in an incubator with saturated humidity at 37°C with 5% CO2. The compounds were diluted with DMSO to a final concentration of 200×. 3 µL of the stock solution of the above compounds in DMSO was added to 197 µL of complete medium, and 50 µL of the compound diluted in the medium was added to the cells of each well. The cells were cultured in an incubator with saturated humidity at 37°C with 5% CO2 for 72 hours. After 72 hours, the culture plates were placed at room temperature for equilibrium. 40 µL of CellTiter-Glo® reagent was added to each well. The plate was mixed evenly on a shaker for 2 minutes to lyse the cells then incubated at room temperature for 60 minutes to stabilize the chemiluminescent signal, and the chemiluminescence was read using a PE EnVision microplate reader. The inhibition rate on cell growth was calculated as % Inh = (DMSO well - compound treatment well) / (DMSO well - background well) x 100, and fitting was performed using GraphPad Prism 5 to obtain the IC50 values against cell growth.

HCC1187 = assay: as above; format: cell-based; settings: Homo sapiens
Description: as §1, §2

A375 = assay: as above; format: cell-based; settings: Homo sapiens, A-375
Description: as §1, §2

Mia-Paca-2 = assay: as above; format: cell-based; settings: Homo sapiens
Description: as §1, §2

CDK9 = CDK9 (Homo sapiens, UniProt P50750); assay: Inhibition of CDK9 kinase activity (caliper mobility shift assay); format: biochemical; settings: for inhibition at 0.01 µM: compound at 10 nM
Description: Compounds were tested at a concentration of 10 nM with detection in duplicate wells, or tested at 10 concentrations starting from 10 µM with three-fold serial dilutions, with detection in duplicate wells.
The inhibitory effect of the compounds on the activity of CDK9 protein kinase was detected by the caliper mobility shift assay method. 250 nL of the compound at 100-fold final concentration was transferred to a target 384-well-plate with a dispenser Echo 550. A kinase solution at 2.5-fold final concentration was prepared using 1× kinase buffer. 10 µL of the kinase solution at 2.5-fold final concentration was added to the compound well and positive control well respectively. 10 µL of 1× kinase buffer was added to the negative control well. The 384-well plate was centrifuged at 1000 rpm for 30 seconds and incubated at room temperature for 10 minutes. A mixed solution of ATP and kinase substrate at 5/3-fold final concentration was prepared with 1× kinase buffer, and to the 384-well plate was added with 15 µL per well of the mixed solution of ATP and substrate at 5/3-fold final concentration to start the reaction. The plate was centrifuged at 1000 rpm for 30 seconds, shaken to mix evenly, and incubated at room temperature for a corresponding time. 30 µL of detection stopping solution was added to terminate the kinase reaction. The 384-well plate was centrifuged at 1000 rpm for 30 seconds and shaken to mix evenly. The conversion rate was read with Caliper EZ Reader. The percent conversion inhibition rate = (% positive control conversion rate mean - % sample conversion rate / (% positive control conversion rate mean - % negative control conversion rate mean). Among them: negative control wells represent the conversion rate readings of kinase buffer background wells; positive control wells represent the conversion rate readings of wells without inhibition by compound. With the log value of concentration as the x-axis and the percentage inhibition rate as the y-axis, a dose-response curve was fitted using the log (inhibitor) vs. response -Variable slope of the analysis software GraphPad Prism 5 to obtain the IC50 value of each compound on enzyme activity. Calculation formula: y=Bottom + (Top-Bottom)/(1+10^((LogIC50-x) × hillslope)), x: logarithm of inhibitor concentration; y: % inhibition rate.

CDK16/CyclinY = CDK16/CyclinY (Homo sapiens, UniProt Q00536); assay: CDK kinase selectivity (HTRF / ADP-Glo); format: biochemical; settings: compound at 0.1 µM; read-out: Inhibition rate CDK16/CyclinY
Description: (§3) The selectivity of the test compounds against CDK kinases was detected. The compounds were tested at a concentration of 0.1 µM, and the inhibition rate of CDK kinases by the compounds was detected in duplicate wells, mainly using HTRF and ADP-Glo detection methods.
(§4) The HTRF detection method was conducted as follows: 2-fold ATP/substrate solution and 2-fold kinase/metal ion solution were prepared respectively with a kinase reaction buffer, and 25 nL of diluted compound solution was transferred to a 384-well detection plate with Echo 655. After centrifugation, the plate was added with 2.5 µL of 2-fold kinase/metal ion solution and incubated at 25°C for 10 minutes. After 10 minutes, 2.5 µL of 2-fold substrate/ATP solution was added to the 384-well detection plate and incubated at 25°C for 60 minutes. 2 kinase detection reagent (XL665 and antibody) was prepared with detection buffer, and 5 µL of kinase detection reagent was added to the 384-well detection plate and incubated at 25°C for 60 minutes. The fluorescence signals at 620 nm (Cryptate) and 665 nm (XL665) were read by the microplate reader, and the ratio and the inhibition rate of kinase activity by the compound were calculated.
(§5) The ADP-Glo detection method was conducted as follows. 2-fold ATP/substrate solution and 2-fold kinase/metal ion solution were prepared respectively with a kinase reaction buffer. 20 nL of diluted compound solution was transferred to a 384-well detection plate by Echo 655. After centrifuged, the 384-well detection plate was added with 2 µL of 2 × kinase/metal ion solution, and incubated at 25°C for 10 minutes. After 10 minutes, the 384-well detection plate was added with 2 µL of 2 × substrate/ATP solution and incubated at 25°C for 60 minutes. 4 µL of ADP-Glo reagent was added to each well and incubated at room temperature for 40 minutes. 10 µL of ADP detection reagent was added to each well and incubated at room temperature for 40 minutes. The chemiluminescent signal was detected with a microplate reader and the inhibition rate of kinase activity was calculated.

CDK7/CycH/MAT1 = CDK7/CycH/MAT1 (Homo sapiens, UniProt P50613); assay: CDK kinase selectivity (HTRF / ADP-Glo); format: biochemical; settings: compound at 0.1 µM; read-out: Inhibition rate CDK7/CycH/MAT1
Description: as §3, §4, §5

Chain of CDK9 (P50750 whole entry): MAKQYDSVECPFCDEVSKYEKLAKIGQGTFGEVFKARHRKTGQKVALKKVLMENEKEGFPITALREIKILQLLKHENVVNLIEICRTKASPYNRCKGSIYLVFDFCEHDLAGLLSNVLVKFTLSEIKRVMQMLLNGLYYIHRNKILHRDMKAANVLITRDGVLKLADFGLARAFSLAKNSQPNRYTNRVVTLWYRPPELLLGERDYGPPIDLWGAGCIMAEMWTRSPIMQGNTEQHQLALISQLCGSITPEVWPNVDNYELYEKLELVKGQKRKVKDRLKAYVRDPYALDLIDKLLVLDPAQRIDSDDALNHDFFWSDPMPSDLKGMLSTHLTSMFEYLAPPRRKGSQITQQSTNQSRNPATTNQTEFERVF
Chain of CDK9 (O60563 whole entry partner): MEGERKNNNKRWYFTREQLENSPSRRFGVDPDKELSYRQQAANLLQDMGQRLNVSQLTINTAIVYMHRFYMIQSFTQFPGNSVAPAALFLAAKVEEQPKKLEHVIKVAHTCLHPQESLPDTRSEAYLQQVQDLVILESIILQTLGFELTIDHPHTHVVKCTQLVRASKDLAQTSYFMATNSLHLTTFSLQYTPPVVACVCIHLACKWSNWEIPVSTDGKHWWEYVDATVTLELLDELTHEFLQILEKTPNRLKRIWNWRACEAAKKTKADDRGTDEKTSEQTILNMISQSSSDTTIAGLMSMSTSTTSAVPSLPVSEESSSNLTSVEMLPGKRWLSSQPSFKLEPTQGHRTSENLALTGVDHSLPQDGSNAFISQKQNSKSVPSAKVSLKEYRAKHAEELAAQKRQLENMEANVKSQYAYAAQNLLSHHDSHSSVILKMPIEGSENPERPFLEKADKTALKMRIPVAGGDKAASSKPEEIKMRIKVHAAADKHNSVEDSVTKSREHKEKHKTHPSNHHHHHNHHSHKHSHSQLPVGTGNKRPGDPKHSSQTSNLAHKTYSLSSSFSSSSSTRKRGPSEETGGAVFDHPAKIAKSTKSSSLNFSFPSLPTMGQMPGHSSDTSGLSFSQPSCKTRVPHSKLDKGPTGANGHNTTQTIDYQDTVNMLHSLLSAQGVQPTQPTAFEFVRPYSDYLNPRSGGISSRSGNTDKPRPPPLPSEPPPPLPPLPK
Chain of CDK7/CycH/MAT1 (P50613 whole entry, species assumed): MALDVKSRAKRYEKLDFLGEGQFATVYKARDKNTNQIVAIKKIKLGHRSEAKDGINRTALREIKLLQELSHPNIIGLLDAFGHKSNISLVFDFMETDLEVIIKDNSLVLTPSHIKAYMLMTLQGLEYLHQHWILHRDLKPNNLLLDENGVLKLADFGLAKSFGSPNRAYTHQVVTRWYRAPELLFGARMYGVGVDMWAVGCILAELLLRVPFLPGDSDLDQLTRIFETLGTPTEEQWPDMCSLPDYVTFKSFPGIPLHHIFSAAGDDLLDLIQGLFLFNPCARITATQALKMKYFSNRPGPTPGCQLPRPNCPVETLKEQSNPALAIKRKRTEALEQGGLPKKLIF
Chain of CDK7/CycH/MAT1 (P51946 whole entry partner, species assumed): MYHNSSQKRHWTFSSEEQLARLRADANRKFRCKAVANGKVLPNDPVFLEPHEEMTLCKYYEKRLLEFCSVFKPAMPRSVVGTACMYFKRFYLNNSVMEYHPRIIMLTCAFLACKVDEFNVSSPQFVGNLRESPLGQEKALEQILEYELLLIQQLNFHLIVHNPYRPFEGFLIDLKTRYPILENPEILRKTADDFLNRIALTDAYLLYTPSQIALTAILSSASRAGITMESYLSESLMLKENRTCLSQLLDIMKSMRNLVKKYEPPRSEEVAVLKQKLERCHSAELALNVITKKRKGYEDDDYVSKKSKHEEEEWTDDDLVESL
Chain of CDK7/CycH/MAT1 (P51948 whole entry partner, species assumed): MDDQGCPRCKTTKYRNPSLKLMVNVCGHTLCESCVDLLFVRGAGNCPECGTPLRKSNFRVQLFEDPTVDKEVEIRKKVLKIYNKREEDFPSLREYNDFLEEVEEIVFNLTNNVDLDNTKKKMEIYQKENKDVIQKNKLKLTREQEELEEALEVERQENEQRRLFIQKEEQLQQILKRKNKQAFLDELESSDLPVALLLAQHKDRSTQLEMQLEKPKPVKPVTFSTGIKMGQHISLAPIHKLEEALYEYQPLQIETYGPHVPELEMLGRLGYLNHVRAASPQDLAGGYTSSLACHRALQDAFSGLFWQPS
Chain of CDK16/CyclinY (Q00536 whole entry): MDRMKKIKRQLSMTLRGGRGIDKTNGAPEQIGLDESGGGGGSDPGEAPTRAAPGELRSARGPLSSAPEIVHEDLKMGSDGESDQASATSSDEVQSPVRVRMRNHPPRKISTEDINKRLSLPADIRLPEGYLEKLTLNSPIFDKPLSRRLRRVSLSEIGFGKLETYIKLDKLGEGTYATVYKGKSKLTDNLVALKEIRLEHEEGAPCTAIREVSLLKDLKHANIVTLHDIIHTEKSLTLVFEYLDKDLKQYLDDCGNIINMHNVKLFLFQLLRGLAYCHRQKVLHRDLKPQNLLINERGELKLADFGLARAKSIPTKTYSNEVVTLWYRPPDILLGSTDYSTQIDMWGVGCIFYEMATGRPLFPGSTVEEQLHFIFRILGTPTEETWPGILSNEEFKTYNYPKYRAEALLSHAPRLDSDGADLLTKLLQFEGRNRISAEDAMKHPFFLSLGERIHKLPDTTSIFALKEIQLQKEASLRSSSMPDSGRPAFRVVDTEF
Chain of CDK16/CyclinY (Q8ND76 whole entry partner): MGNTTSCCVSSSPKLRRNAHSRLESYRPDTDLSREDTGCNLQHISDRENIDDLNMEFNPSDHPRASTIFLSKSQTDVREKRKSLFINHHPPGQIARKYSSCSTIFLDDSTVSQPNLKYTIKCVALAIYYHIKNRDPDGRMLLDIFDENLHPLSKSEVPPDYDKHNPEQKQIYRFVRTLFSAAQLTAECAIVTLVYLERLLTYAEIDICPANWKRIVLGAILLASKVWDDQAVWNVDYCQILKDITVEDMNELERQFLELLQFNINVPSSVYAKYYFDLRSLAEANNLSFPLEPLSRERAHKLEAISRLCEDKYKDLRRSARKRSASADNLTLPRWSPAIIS

Structure (SMILES): Clc1cnc2nc1NCCCCCNCc1cccc(c1)N2 [Compound 8, 1^5-chloro-2,5,11-triaza-1(2,4)-pyrimidina-3(1,3)-benzenacyclodecaphane]
- pIC50 (MV-4-11): > 6.60
- pIC50 (HCC1187): 6.00 to 6.60
- pIC50 (A375): > 6.60
- pIC50 (Mia-Paca-2): > 6.60
- pIC50 (CDK9; 10 concentrations from 10 µM, three-fold dilutions): > 7.00
- inhibition at 0.01 µM (CDK9; selectivity panel Table 3, read-out: Inhibition rate CDK9): > 50%
- inhibition at 0.01 µM (CDK9; read-out: Inhibition rate on CDK9 kinase activity): > 50%
- inhibition at 0.1 µM (CDK16/CyclinY): 50 to 75%
- inhibition at 0.1 µM (CDK7/CycH/MAT1): 50 to 75%
